Results from BigSolDB 2.1.

CC(=O)c1c(C)c([N+](=O)[O-])c(C(C)(C)C)c([N+](=O)[O-])c1C
solubility (mole fraction)
Conditions | 278.15 K | 283.15 K | 288.15 K | 293.15 K | 298.15 K | 303.15 K | 308.15 K | 313.15 K | 318.15 K
in DMF | 0.0747 | 0.0867 | 0.0998 | 0.113 | 0.128 | 0.147 | 0.167 | 0.187 | 0.211
in ethanol | 0.00197 | 0.00243 | 0.003 | 0.00367 | 0.00444 | 0.00531 | 0.00633 | 0.00753 | 0.00892
in isopropanol | 0.00161 | 0.00204 | 0.00258 | 0.00323 | 0.00408 | 0.00506 | 0.0063 | 0.00771 | 0.00933
in methanol | 0.0013 | 0.00156 | 0.00187 | 0.00224 | 0.00267 | 0.00318 | 0.00375 | 0.00442 | 0.00515
